What all share (type): cell-based
For test [1], the system named is ACV sensitive HSV-2 isolate. The experiment in a line: AAV replicon based resistance test with clinical HSV-2 isolates, sensitive isolate. The conditions noted are these: ACV 20 μM and higher; LE2D8 cells; 48 hpi. The method, then: (§1) For testing the single HSV-2 virus isolates, LE2D8 were seeded to 3.3×10^4 cells in a 96 well format, 2 hours before treatment with 0.8, 4, 20, 100 and 500 μM ACV and infection with 1:10 diluted HSV-2 isolates, always using technical triplicates. After 48 hpi, GLuc activity in the supernatant was measured by luminometry and values were compared to non-treated and mock infected cells as above. In FIGS. 6A and 6B we show example of the replicon response induced by an ACV sensitive HSV2- and one of an ACV resistant HSV-2 isolate.

In test [2] the test system is ACV sensitive HSV-1 laboratory strain. The experiment in a line: Endpoint dilution assay (TCID50) of supernatants of ACV treated infected LE2D8 cells, sensitive HSV-1. The conditions noted are these: ACV 1, 6, 12, 48 and 96 μg/ml; counts at day 7. The source says:
(§2) For the validation of the new established replicon based assay we made an endpoint-dilution-assay to monitor the amount of the produced viruses in presence of the ACV treatment. This standardised assay for detection of viral growth is very sensitive but very time consuming since 5-7 days are required to obtain the results. To test the virus production in our assay condition with the standard method the sensitive and ACV-resistant HSV-1 containing assay supernatants of the infected LE2D8 cells treated with different concentrations of ACV (n.t., 1, 6, 12, 48 and 96 μg/ml) were collected. Subsequently endpoint dilution assays were performed using HEK-cells in a 96 well plate format. The Tissue Culture Infection Dose 50 (TCID50) was calculated after collecting the infectivity counts at day 7 (FIG. 5B).

Test [3] concerns wild type ACV sensitive HSV-1 laboratory strain. The experiment in a line: AAV replicon based ACV resistance test in LE2D8 cells (GLuc luciferase readout), sensitive HSV-1. The conditions noted are these: ACV 6-12 μg/mi, MOI 0.035, 48 hpi. The method, then:
The cell line LE2D8 was seeded onto 96-well-plates at density of 3.3×10^4 cell/well. Two hours after seeding the cells were left untreated or were treated with different concentrations of ACV (CAS: 59277-89-3) (ranging from 0.05 to 144 μg/ml). Right after treatment the cells were infected with either a wild type ACV sensitive HSV-1 laboratory strain or an ACV resistant strain (kindly provided from Dr. Gundula Jäger, Max von Pettenkofer-Institute, LMU Munich) using an MOI of 0.035. After only 48 hpi luciferase activity in 20 μl of the supernatant was measured as the previous experiments. The luciferase activities of the ACV treated cells were compared to the luciferase activities obtained after infection of the non-treated cells. The luciferase induction of the non-treated cells was set 100% and the activity of the ACV treated cells was depicted as % of the non-treated values (FIG. 5A).

The test system of the next test is ACV-resistant HSV-1. The experiment in a line: Endpoint dilution assay (TCID50) of supernatants of ACV treated infected LE2D8 cells, resistant HSV-1. The conditions noted are these: ACV 1, 6, 12, 48 and 96 μg/ml; counts at day 7.
Text: as §2

The test system of test [4] is ACV resistant HSV-2 isolate. Description: AAV replicon based resistance test with clinical HSV-2 isolates, resistant isolate. The conditions noted are these: ACV 0.8, 4, 20, 100 and 500 μM; LE2D8 cells; 48 hpi. As to the method:
as §1

The record followed here is patent publication US11926841B2, “AAV-based conditional expression system” (priority 2016, dated 2024).

Consider `Nc1nc2c(ncn2COCCO)c(=O)[nH]1` [ACV, Aciclovir], for which the “GLuc activity compared to non-treated cells” value in test [1] was “decreasing amounts of GLuc activity”. The “virus replication under ACV treatment (TCID50, endpoint dilution)” value is “indeed inhibited by ACV treatment” in test [2] and “could not inhibit the replication” in the test with ACV-resistant HSV-1. For the same molecule, the “luciferase activity, % of non-treated cells” value in test [3] is on record as 20%. Moreover, in test [4], the “GLuc induction, % of the non-treated values” is listed as no less than 50%.
